From patent US20100267561A1, “HERBICIDAL PYRIDAZINONE DERIVATIVES” (priority 2007, published 2010)

How the values were obtained:
Type in all cases: in vivo
[1] = system: bermudagrass (Cynodon dactylon); assay: Test B pre-/postemergence plant response; details: for Bermudagrass plant response rating: 8 g ai/ha
Outline: (§1)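 Seeds were sown and sprayed preemergence, while plants at 2 to 18 cm (1- to 4-leaf stage) got postemergence sprays. Compounds were formulated in a non-phytotoxic solvent mixture with surfactant. After 13 to 15 days in a greenhouse, injury was rated visually against untreated controls, 0 (no effect) to 100 (complete control).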

[2] = system: catchweed bedstraw (Galium aparine); assay: Test B pre-/postemergence plant response; details: Preemergence
Outline: as §1

[3] = system: cocklebur (Xanthium strumarium); assay: Test B pre-/postemergence plant response; details: for Cocklebur plant response rating: 8 g ai/ha
Outline: as §1

[4] = system: downy bromegrass (Bromus tectorum); assay: Test B pre-/postemergence plant response; details: for Bromegrass, Downy plant response rating: 8 g ai/ha
Outline: as §1

[5] = system: large crabgrass (Digitaria sanguinalis); assay: Test B pre-/postemergence plant response
Outline: as §1

[6] = system: soybean (Glycine max); assay: Test B pre-/postemergence plant response
Outline: as §1

[7] = system: velvetleaf (Abutilon theophrasti); assay: Test B pre-/postemergence plant response
Outline: as §1

[8] = system: wheat (Triticum aestivum); assay: Test B pre-/postemergence plant response
Outline: as §1

[9] = system: wild oat (Avena fatua); assay: Test B pre-/postemergence plant response
Outline: as §1

[10] = system: woolly cupgrass (Eriochloa villosa); assay: Test B pre-/postemergence plant response
Outline: as §1

[11] = system: barnyardgrass (Echinochloa crus-galli); assay: Test B flooded paddy test plant response
Outline: (§2)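 Step one: raise plants to 2 leaves. Step two: flood pots 3 cm over the soil and apply compound into the water, keeping this depth. Step three: after 13–15 greenhouse days, score visually versus controls, 0–100, where 100 means complete control.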

[12] = system: ducksalad (Heteranthera limosa); assay: Test B flooded paddy test plant response; details: Flood (flooded paddy test), scale 0 to 100, 0 no effect, 100 complete control
Outline: as §2

[13] = system: rice (Oryza sativa); assay: Test B flooded paddy test plant response
Outline: as §2

[14] = system: umbrella sedge (Cyperus difformis); assay: Test B flooded paddy test plant response
Outline: as §2

[15] = Postemergence, 16 g ai/ha, scale 0 to 100
[16] = Postemergence, 31 g ai/ha, scale 0 to 100
[17] = Postemergence, 62 g ai/ha, scale 0 to 100, 0 no effect, 100 complete control
[18] = Preemergence, scale 0 to 100 (0 no effect, 100 complete control)
[19] = Preemergence, 16 g ai/ha, scale 0 to 100 (0 no effect, 100 complete control)
[20] = Preemergence, 31 g ai/ha, 0 to 100 scale, 0 no effect, 100 complete control
[21] = Preemergence, 62 g ai/ha, scale 0 to 100
[22] = 8 g ai/ha, postemergence, 0-100 scale
[23] = Preemergence, 8 g ai/ha, scale 0 to 100
[24] = Preemergence, 16 g ai/ha, scale 0 to 100
[25] = Preemergence, 31 g ai/ha, scale 0 to 100 (0 no effect, 100 complete control)
[26] = Preemergence, 62 g ai/ha, 0 to 100 scale, 0 no effect, 100 complete control
[27] = Flood (flooded paddy test), 62 g ai/ha, scale 0 to 100, 0 no effect, 100 complete control
[28] = Flood (flooded paddy test), 250 g ai/ha, scale 0 to 100, 0 no effect, 100 complete control
[29] = Flood (flooded paddy test), 125 g ai/ha, scale 0 to 100, 0 no effect, 100 complete control
[30] = Flood, 31 g ai/ha, scale 0 to 100

With `Cc1cc(-c2ccc(Cl)cc2)nn1-c1c(OC(=O)Oc2ccccc2)cnn(C)c1=O` [Compound 54] the “Bermudagrass plant response rating” value ([1]; postemergence, 0-100 scale) was 100, the “Plant response rating, Bermudagrass” value [1, 15] was 100 and the “Plant response rating, Bermudagrass” value [1, 16] was 100. The “Plant response rating, Bermudagrass” value [1, 17] was 100, the “Bermudagrass plant response rating” value [1, 18] was 0 and the “Plant response rating, Bermudagrass” value [1, 19] was 0. The “Plant response rating, Bermudagrass” value [1, 20] was 0, the “Plant response rating, Bermudagrass” value [1, 21] was 0 and the “Plant response rating, Galium” value ([2]; 62 g ai/ha, scale 0 to 100) was 0. For the same compound, the “Galium plant response rating” value ([2]; 8 g ai/ha, scale 0 to 100) was 0, the “Galium plant response rating” value ([2]; 16 g ai/ha, scale 0 to 100) was 0 and the “Cocklebur plant response rating” value ([3]; postemergence, 0-100 scale) was 0. For the same compound, the “Plant response rating, Cocklebur” value [3, 15] was 0, the “Plant response rating, Cocklebur” value [3, 16] was 0 and the “Plant response rating, Cocklebur” value [3, 17] was 0. The “Plant response rating, Cocklebur” value [3, 19] was 0, the “Plant response rating, Cocklebur” value [3, 20] was 0 and the “Plant response rating, Cocklebur” value [3, 21] was 0. The “Cocklebur plant response rating” value ([3]; Preemergence, scale 0 to 100) was 0, the “Bromegrass, Downy plant response rating” value ([4]; postemergence, 0-100 scale) was 5 and the “Plant response rating, Bromegrass, Downy” value [4, 15] was 50. For the same compound, the “Plant response rating, Bromegrass, Downy” value [4, 16] was 50, the “Plant response rating, Bromegrass, Downy” value [4, 17] was 70 and the “Plant response rating, Bromegrass, Downy” value [4, 19] was 0. For the same compound, the “Plant response rating, Bromegrass, Downy” value [4, 20] was 70, the “Plant response rating, Bromegrass, Downy” value [4, 21] was 85 and the “Bromegrass, Downy plant response rating” value ([4]; Preemergence, scale 0 to 100) was 0. The “Crabgrass, Large plant response rating” value [5, 22] was 65, the “Plant response rating, Crabgrass, Large” value [5, 15] was 85 and the “Plant response rating, Crabgrass, Large” value [5, 16] was 98. The “Plant response rating, Crabgrass, Large” value [5, 17] was 98, the “Plant response rating, Crabgrass, Large” value [5, 20] was 0 and the “Plant response rating, Crabgrass, Large” value [5, 21] was 0. The “Crabgrass, Large plant response rating” value [5, 23] was 0, the “Crabgrass, Large plant response rating” value [5, 24] was 0 and the “Soybean plant response rating” value [6, 22] was 0. The “Plant response rating, Soybean” value [6, 15] was 0, the “Plant response rating, Soybean” value [6, 16] was 0 and the “Plant response rating, Soybean” value [6, 17] was 0. The “Plant response rating, Soybean” value [6, 25] was 0, the “Plant response rating, Soybean” value [6, 21] was 0 and the “Soybean plant response rating” value [6, 23] was 0. The “Soybean plant response rating” value [6, 24] was 0, the “Velvetleaf plant response rating” value [7, 22] was 0 and the “Plant response rating, Velvetleaf” value [7, 15] was 0. For the same compound, the “Plant response rating, Velvetleaf” value [7, 16] was 0, the “Plant response rating, Velvetleaf” value [7, 17] was 0 and the “Plant response rating, Velvetleaf” value [7, 25] was 0. For the same compound, the “Plant response rating, Velvetleaf” value [7, 26] was 0, the “Velvetleaf plant response rating” value [7, 23] was 0 and the “Velvetleaf plant response rating” value [7, 24] was 0. For the same compound, the “Wheat plant response rating” value [8, 22] was 0, the “Plant response rating, Wheat” value [8, 15] was 30 and the “Plant response rating, Wheat” value [8, 16] was 60. The “Plant response rating, Wheat” value [8, 17] was 60, the “Plant response rating, Wheat” value [8, 25] was 10 and the “Plant response rating, Wheat” value [8, 26] was 50. The “Wheat plant response rating” value [8, 24] was 0, the “Oat, Wild plant response rating” value [9, 22] was 85 and the “Plant response rating, Oat, Wild” value [9, 15] was 90. For the same compound, the “Plant response rating, Oat, Wild” value [9, 16] was 98, the “Plant response rating, Oat, Wild” value [9, 17] was 98 and the “Plant response rating, Oat, Wild” value [9, 25] was 75. The “Plant response rating, Oat, Wild” value [9, 21] was 95, the “Oat, Wild plant response rating” value [9, 23] was 40 and the “Oat, Wild plant response rating” value [9, 24] was 70. The “Cupgrass, Woolly plant response rating” value [10, 22] was 80, the “Plant response rating, Cupgrass, Woolly” value [10, 15] was 90 and the “Plant response rating, Cupgrass, Woolly” value [10, 16] was 98. For the same compound, the “Plant response rating, Cupgrass, Woolly” value [10, 17] was 100, the “Plant response rating, Cupgrass, Woolly” value [10, 20] was 0 and the “Plant response rating, Cupgrass, Woolly” value [10, 21] was 0. For the same compound, the “Cupgrass, Woolly plant response rating” value [10, 23] was 0, the “Cupgrass, Woolly plant response rating” value [10, 24] was 0 and the “Plant response rating, Barnyardgrass” value [11, 27] was 20. For the same compound, the “Plant response rating, Barnyardgrass” value [11, 28] was 80, the “Plant response rating, Ducksalad” value ([12]; 62 g ai/ha) was 0 and the “Plant response rating, Ducksalad” value ([12]; 250 g ai/ha) was 0. For the same compound, the “Plant response rating, Rice” value [13, 27] was 15, the “Plant response rating, Rice” value [13, 28] was 80 and the “Plant response rating, Sedge, Umbrella” value [14, 27] was 0. For the same compound, the “Plant response rating, Sedge, Umbrella” value [14, 28] was 0.
`Cc1ccc(-c2ccc(Cl)cc2)cc1-c1c(O)cnn(C)c1=O` [Compound 46] was tested, and the “Bermudagrass plant response rating” value [1, 18] was 0, the “Plant response rating, Bermudagrass” value [1, 19] was 20 and the “Plant response rating, Bermudagrass” value [1, 20] was 85. The “Plant response rating, Bermudagrass” value [1, 21] was 100, the “Plant response rating, Galium” value ([2]; 16 g ai/ha, scale 0 to 100 (0 no effect, 100 complete control)) was 0 and the “Plant response rating, Galium” value ([2]; 31 g ai/ha, 0 to 100 scale, 0 no effect, 100 complete control) was 0. For the same compound, the “Plant response rating, Galium” value ([2]; 62 g ai/ha, scale 0 to 100) was 0, the “Galium plant response rating” value ([2]; 8 g ai/ha, scale 0 to 100) was 0 and the “Plant response rating, Cocklebur” value [3, 19] was 0. For the same compound, the “Plant response rating, Cocklebur” value [3, 20] was 0, the “Plant response rating, Cocklebur” value [3, 21] was 0 and the “Cocklebur plant response rating” value ([3]; Preemergence, scale 0 to 100) was 0. For the same compound, the “Plant response rating, Bromegrass, Downy” value [4, 19] was 0, the “Plant response rating, Bromegrass, Downy” value [4, 20] was 0 and the “Plant response rating, Bromegrass, Downy” value [4, 21] was 5. For the same compound, the “Bromegrass, Downy plant response rating” value ([4]; Preemergence, scale 0 to 100) was 0, the “Plant response rating, Crabgrass, Large” value [5, 19] was 0 and the “Plant response rating, Crabgrass, Large” value [5, 20] was 60. The “Plant response rating, Crabgrass, Large” value [5, 21] was 100, the “Crabgrass, Large plant response rating” value [5, 23] was 0 and the “Plant response rating, Soybean” value [6, 19] was 0. For the same compound, the “Plant response rating, Soybean” value [6, 25] was 0, the “Plant response rating, Soybean” value [6, 21] was 0 and the “Soybean plant response rating” value [6, 23] was 0. For the same compound, the “Plant response rating, Velvetleaf” value [7, 19] was 0, the “Plant response rating, Velvetleaf” value [7, 25] was 0 and the “Plant response rating, Velvetleaf” value [7, 26] was 0. For the same compound, the “Velvetleaf plant response rating” value [7, 23] was 0, the “Plant response rating, Wheat” value [8, 19] was 0 and the “Plant response rating, Wheat” value [8, 25] was 0. For the same compound, the “Plant response rating, Wheat” value [8, 26] was 0, the “Wheat plant response rating” value [8, 23] was 0 and the “Plant response rating, Oat, Wild” value [9, 19] was 0. The “Plant response rating, Oat, Wild” value [9, 25] was 0, the “Plant response rating, Oat, Wild” value [9, 21] was 35 and the “Oat, Wild plant response rating” value [9, 23] was 0. The “Plant response rating, Cupgrass, Woolly” value [10, 19] was 0, the “Plant response rating, Cupgrass, Woolly” value [10, 20] was 85 and the “Plant response rating, Cupgrass, Woolly” value [10, 21] was 98. For the same compound, the “Cupgrass, Woolly plant response rating” value [10, 23] was 0, the “Plant response rating, Barnyardgrass” value [11, 27] was 0 and the “Plant response rating, Barnyardgrass” value [11, 29] was 30. The “Plant response rating, Barnyardgrass” value [11, 28] was 40, the “Plant response rating, Barnyardgrass” value [11, 30] was 0 and the “Plant response rating, Ducksalad” value ([12]; 62 g ai/ha) was 30. The “Plant response rating, Ducksalad” value ([12]; 125 g ai/ha) was 45, the “Plant response rating, Ducksalad” value ([12]; 250 g ai/ha) was 85 and the “Plant response rating, Rice” value [13, 27] was 0. For the same compound, the “Plant response rating, Rice” value [13, 29] was 20, the “Plant response rating, Rice” value [13, 28] was 35 and the “Plant response rating, Rice” value [13, 30] was 0. The “Plant response rating, Sedge, Umbrella” value [14, 27] was 50, the “Plant response rating, Sedge, Umbrella” value [14, 29] was 60 and the “Plant response rating, Sedge, Umbrella” value [14, 28] was 75. The “Plant response rating, Sedge, Umbrella” value [14, 30] was 40.
